Holding throughout (assay type): cell-based
Test [1] relates to primary human neutrophils. Briefly: Survival of primary human neutrophils, annexin V-FITC. As to conditions: for cell survival: neutrophils; for effect on neutrophil survival in response to low concentrations of GM-CSF: 15 μM inhibitor. The protocol:
Survival was determined by annexin V-FITC (Roche) staining essentially as previously described (Guthridge et al., 2000). […] After 48 hours, cells were stained with the 4H1 anti-GMRα mAb and annexin V-FITC. The proportion of GMRα-positive cells remaining viable (annexin V-FITC-negative) after culture was analysed by flow cytometry. […] In some experiments forskolin ICN Biochemicals), H89 (Seikaguku Corporation), LY294002 (Cayman Chemical Company), genestein (Sigma) or AG490 (Biomol) were used.

Test [2] concerns βc subunit of the GM-CSF receptor (Ser585, Tyr577). In words: βc immunoprecipitation and phospho-specific immunoblot in TF-1 cells after GM-CSF titration. The procedure: (§1) Cells were factor-deprived in RPMI containing 0.1% FCS for 24 h and then stimulated for 10 min with different GM-CSF concentrations before lysis as previously described (Guthridge et al., 2000). Human mononuclear cells from normal donors and from leukemic patients were separated from peripheral blood by centrifugation over ficoll. The βc subunit was immunoprecipitated using a mixture of 1C1 and 8E4 anti-βc mAb (1C1/8E4)(1 μg each/immunoprecipitation) and immunoprecipitates subjected to SDS-PAGE and immunoblot analysis. Affinity purified anti-14-3-3 pAb (EB1) were used at a dilution of 1:5000 (Guthridge et al., 2000). Anti-MAP2 mAb (MK12)(Pharmingen) was used at a dilution of 1:5000. Anti-p85 pAb antibodies (UBI) were used at a dilution of 1:1000. The 4G10 anti-phosphotyrosine mAb (UBI) was used at 1 pg/ml. The anti-active-ERK pAb (Promega) was used at 50 ng/ml, the anti-phosphorylated STAT5 mAb (Zymed) was used at 2 μg/ml, the anti-phospho-JAK2 pAb (Affinity Bioreagents) was used at 0.5 μg/ml. Affinity purified anti-βc phospho-577 pAb (Guthridge et al., 2004) were used at a dilution of 1:1000. Antibodies to phospho-Ser585 of βc (Guthridge et al., 2000) were used at a dilution of 1:5000. The phosphorylation of Akt in response to GM-CSF was examined in CTL-EN cells electroporated with the pCMV-AKT-HA plasmid (30 μg DNA/1×10^7 cells)(kindly provided by P. N. Tsichlis). 24 h after electroporation the cells were factor-deprived overnight in DMEM/0.5% FCS. Cells were then stimulated (10^7 cells/time point) with either 1 pM or 1000 pM GM-CSF and lysed in RIPA buffer (150 mM NaCl, 1.0% NP40, 0.5% Deoxycholate, 0.1% SDS, 50 mM Tris pH8.0) and subjected to SDS-PAGE and immunoblot analysis with the anti-phospho-Akt Ser473 pAb (1:1000)(Cell Signalling Technologies).
On the technique in general: Immunoblotting shows a protein as a band on a membrane.

Test [3] concerns JAK2, STAT5 and ERK. In words: Immunoblot of TF-1 lysates for phospho-JAK2, phospho-STAT5 and active ERK. The settings on record: also βc tyrosine phosphorylation and p85 recruitment. The procedure:
as §1, with “24 h after electroporation the cells were factor-deprived overnight in DMEM/0.5% FCS. Cells were then stimulated (10^7 cells/time point) with either 1 pM or 1000 pM GM-CSF and lysed in RIPA buffer (150 mM NaCl, 1.0% NP40, 0.5% Deoxycholate, 0.1% SDS, 50 mM Tris pH8.0) and subjected to SDS-PAGE and immunoblot analysis with the anti-phospho-Akt Ser473 pAb (1:1000)(Cell Signalling Technologies).” left out

Test [4] concerns PKA. In words: Protein kinase A (PKA) kinase assay in TF-1 cells. The settings on record: 1 pM GM-CSF, up to 30 min, compared with 1000 pM. The procedure:
TF-1 cells were factor-deprived overnight in DMEM containing 0.5% FCS. Cells (4×10^6) were stimulated with GM-CSF or forskolin before lysis in 1 ml 20 mM Tris HCl pH 7.4, 0.5 mM EDTA, 0.5 mM EGTA, 10 mM 2-mercaptoethanol, 5% Glycerol and 2 mM NaF by 20 strokes of a dounce homogenizer on ice. The lysate was centrifuged at 170 g for 15 min and the supernatant then centrifuged at 100,000 g for 1 h at 4° C. The resulting pellet was resuspended in NP40 lysis buffer with a protease/phosphatase inhibitor cocktail (Guthridge et al., 2000; Guthridge et al., 2004). Lysate (2 μl) was then tested for PKA activity by adding 40 μM kemptide, 0.25 μCi [y-^32P] ATP, 1 μM cold ATP, in a buffer containing 10 mM MgCl2, 10 mM Tris HCl pH7.4, 1 mM β-glycerol phosphate and 1 mM DTT. Reactions (20 μl) were incubated at 30° C. for 30 min and aliquots were examined for 32P-labelled kemptide on p81 phosphocellulose filters (Whatman) and liquid scintillation counting (Guthridge et al., 2000).

Test [5] relates to Akt. Briefly: Akt Ser473 phosphorylation immunoblot in CTL-EN cells expressing the wt GM-CSF receptor. The settings on record: 1 pM GM-CSF, compared with 1000 pM GM-CSF. The procedure: as §1, with “24 h after electroporation the cells were factor-deprived overnight in DMEM/0.5% FCS. Cells were then stimulated (10^7 cells/time point) with either 1 pM or 1000 pM GM-CSF and lysed in RIPA buffer (150 mM NaCl, 1.0% NP40, 0.5% Deoxycholate, 0.1% SDS, 50 mM Tris pH8.0) and subjected to SDS-PAGE and immunoblot analysis with the anti-phospho-Akt Ser473 pAb (1:1000)(Cell Signalling Technologies).” left out

Test [6] concerns TF-1 cells. Briefly: TF-1 cell survival, annexin V-FITC flow cytometry. As to conditions: data not shown. The protocol:
Survival was determined by annexin V-FITC (Roche) staining essentially as previously described (Guthridge et al., 2000). Briefly, transduced fetal liver cells were plated in IMDM and either 0.1% or 10% FCS containing either no GM-CSF, […] hGM-CSF or a positive control cytokine cocktail containing 50 ng/ml IL-6 (Peprotech), 100 ng/ml mouse SCF and 10 ng/ml G-CSF (Amgen). After 48 hours, cells were stained with the 4H1 anti-GMRα mAb and annexin V-FITC. The proportion of GMRα-positive cells remaining viable (annexin V-FITC-negative) after culture was analysed by flow cytometry. The regulation of TF-1 cell survival by GM-CSF was determined as previously described (Guthridge et al., 2000; Guthridge et al., 2004). To examine the survival of primary human neutrophils in response to GM-CSF, we modified our previously described assay (Begley et al., 1986). Neutrophils purified by centrifugation through Lymphoprep (Axis-Shield) were plated at 1.5×10^5 cells/ml in IMDM/0.5% FCS containing different concentrations of GM-CSF and cell survival was examined as previously described (Guthridge et al., 2000). In some experiments forskolin ICN Biochemicals), H89 (Seikaguku Corporation), LY294002 (Cayman Chemical Company), genestein (Sigma) or AG490 (Biomol) were used.
Background: In flow cytometry, cells or beads pass a laser one at a time.

Entries after “also recorded” stand apart in the source; their conditions may differ.

Regarding “GM-CSF: cytokine; human GM-CSF used to stimulate cells via the GM-CSF receptor”, the cell survival in test [1] (0.1 pM GM-CSF) amounted to 90%. Also, the cell survival in test [1] (1 pM GM-CSF) came to 83%. Also, in test [2] (TF-1 cells, 10 min stimulation), the “GM-CSF concentration at which Tyr577 phosphorylation was detectable” value is on record as “greater than 10 pM”, the “GM-CSF concentration at which phosphorylation of Ser585 decreased” value was determined as 10 pM, the “GM-CSF concentration at which phosphorylation of Ser585 increased” value was less than 3 pM and the “GM-CSF concentration at which phosphorylation of Ser585 was virtually absent” value is “over 100 pM”. In addition, the “GM-CSF concentration that promotes Ser585 phosphorylation, 14-3-3 binding and p85 recruitment” value in test [2] (low concentration signal) is less than 3 pM. In test [3], the “GM-CSF concentration resulting in phosphorylation of JAK2, STAT5 and ERK” value is greater than 10 pM. Further, the PKA activity entry in test [4] is “higher and more sustained”. Moreover, the “phosphorylation of Ser473 of Akt” value in test [5] was “the magnitude was reduced and the kinetics were delayed”.
`O=S(=O)(NCCNC/C=C/c1ccc(Br)cc1)c1cccc2cnccc12` [H89]: the “effect on ability of GM-CSF to promote survival in TF-1 cells” value in test [6] is listed as “reduced”. Besides, in test [1] (neutrophils stimulated with GM-CSF), the “effect on GM-CSF-promoted survival of neutrophils” value was “reduced”.
As for `C=C[C@@]1(C)CC(=O)[C@]2(O)[C@@]3(C)[C@@H](O)CCC(C)(C)[C@@H]3[C@H](O)[C@H](OC(C)=O)[C@@]2(C)O1` [forskolin], the cell survival in test [1] (forskolin in the absence of GM-CSF (from 27% without)) worked out at 46%.
Consider `N#C/C(=C/c1ccc(O)c(O)c1)C(=O)NCc1ccccc1` [AG490], for which, in test [1], the “effect on neutrophil survival in response to low concentrations of GM-CSF” value is “Neither inhibitor was able to block; also recorded: survival was increased”.
On the same count and under the same terms, in the case of `O=c1c(-c2ccc(O)cc2)coc2cc(O)cc(O)c12` [genestein] it was “Neither inhibitor was able to block”.

The record behind these values is patent publication US20070219117A1, “BIDENTATE MOTIF AND METHODS OF USE” (MEDVET SCIENCE PTY LTD, priority 2003, published 2007).
